Measurements: the PolyMetriX glass transition set

Compound	glass transition temperature
*/N=N/c1ccc([Te]c2ccc(*)cc2)cc1 (repeat unit)	300.00 °C
*C(=O)Nc1cc(C(c2cc(C)c(C)c(NC(=O)c3ccc4c(c3)C(=O)N(c3cccc5c(N6C(=O)c7ccc(*)cc7C6=O)cccc35)C4=O)c2)(C(F)(F)F)C(F)(F)F)cc(C)c1C (repeat unit)	250.00 °C
*C(=O)Nc1ccc(-c2ccc(NC(=O)c3ccc4c(c3)C(=O)N(c3c(C)cc(C)c(N5C(=O)c6ccc(*)cc6C5=O)c3C)C4=O)cc2C(F)(F)F)c(C(F)(F)F)c1 (repeat unit)	267.00 °C
*C(=O)Nc1ccc(C(c2ccc(NC(=O)c3ccc4c(c3)C(=O)N(c3c(C)cc(C)c(N5C(=O)c6ccc(*)cc6C5=O)c3C)C4=O)cc2)(C(F)(F)F)C(F)(F)F)cc1 (repeat unit)	250.00 °C
*C(=O)c1ccc2c(c1)C(=O)N(c1ccc(/C=C/c3ccc(N4C(=O)c5ccc(*)cc5C4=O)cc3S(=O)(=O)[O][Na])c(S(=O)(=O)[O][Na])c1)C2=O (repeat unit)	229.00 °C
*C(=O)c1ccc2c(c1)C(=O)N(c1cccc(C(=O)c3c(C)cc(C)c(N4C(=O)c5ccc(*)cc5C4=O)c3C)c1)C2=O (repeat unit)	300.00 °C
*CCCN(Cc1ccccc1)C(=O)S* (repeat unit)	27.00 °C
*Oc1c(Br)cc(C(C)(C)c2cc(Br)c(OC(=O)c3ccc(OCCCCCCCCCCOc4ccc(C(*)=O)cc4)cc3)c(Br)c2)cc1Br (repeat unit)	128.00 °C
*Oc1c(F)c(F)c(Sc2c(F)c(F)c(Oc3ccc(C(c4ccc(*)cc4)(C(F)(F)F)C(F)(F)F)cc3)c(F)c2F)c(F)c1F (repeat unit)	141.50 °C
*Oc1cc(Br)c(C(C)(C)c2c(Br)cc(OC(*)=O)cc2Br)c(Br)c1 (repeat unit)	267.00 °C
*Oc1ccc(Sc2ccc(Sc3ccc(Sc4ccc(*)cc4)cc3)cc2)cc1 (repeat unit)	84.00 °C
*Oc1cccc(Oc2ccc(C(=O)O)c(C(=O)Nc3ccc(Oc4ccc(-c5ccc(Oc6ccc(NC(=O)c7cc(*)ccc7C(=O)O)cc6)cc5)cc4)cc3)c2)c1 (repeat unit)	100.00 °C
*Oc1cccc(Oc2ccc3c(=O)n4c5cc(Oc6ccc7c(c6)nc6c8ccc(*)c9cccc(c(=O)n76)c98)ccc5nc4c4cccc2c34)c1 (repeat unit)	369.50 °C
*Oc1cccc(Oc2cccc(*)n2)c1 (repeat unit)	82.00 °C
*Oc1cccc2c(OC(=O)c3ccc(Oc4ccc(C(*)=O)cc4)cc3)cccc12 (repeat unit)	171.00 °C
*Oc1cccc2c(OC3(F)C(*)(F)C(F)(F)C3(F)F)cccc12 (repeat unit)	138.00 °C
*Oc1ccccc1-c1ccccc1Oc1ccc2c(=O)n3c4cc(-c5ccc6c(c5)nc5c7ccc(*)c8cccc(c(=O)n65)c87)ccc4nc3c3cccc1c23 (repeat unit)	376.00 °C
*SC(C)C(*)=O (repeat unit)	12.00 °C
*SSc1ccc(/N=C/Nc2ccc(*)cc2)cc1 (repeat unit)	98.00 °C
*Sc1c(C)cc(*)cc1C (repeat unit)	198.00 °C

Compound	glass transition temperature
*Sc1ccc(Sc2ccc(Sc3ccc4c(c3)Sc3ccc(*)cc3S4)cc2)cc1 (repeat unit)	154.00 °C
*Sc1ccc(Sc2ccc(Sc3cccc4c3C(=O)N(N3C(=O)c5cccc(*)c5C3=O)C4=O)cc2)cc1 (repeat unit)	266.00 °C
*[Si](*)(C)CCCOCC1COC(C)(C)O1 (repeat unit)	-48.00 °C
*[Si](*)(C)c1ccccc1 (repeat unit)	88.00 °C
*c1[nH]c(*)c(OC)c1OC (repeat unit)	-26.00 °C
*c1c(C)cc(C(c2cccnc2)c2cc(C)c(N3C(=O)CC(Nc4ccc(NC5CC(=O)N(*)C5=O)cc4)C3=O)c(C)c2)cc1C (repeat unit)	231.00 °C
*c1cc(-c2sc(-c3cc(CCCC)c(*)s3)cc2CCCC)c2cccccc1-2 (repeat unit)	124.00 °C
*c1cc(Br)c(-c2c(Br)cc(N3C(=O)c4ccc(-c5ccc6c(c5)C(=O)N(*)C6=O)cc4C3=O)cc2C(=O)OCCCCCCCCCCCCCCCC)c(C(=O)OCCCCCCCCCCCCCCCC)c1 (repeat unit)	92.00 °C
*c1cc(Br)c(-c2c(Br)cc(N3C(=O)c4ccc(-c5ccc6c(c5)C(=O)N(*)C6=O)cc4C3=O)cc2C(=O)OCCCCCCCCCCCCCCCCCC)c(C(=O)OCCCCCCCCCCCCCCCCCC)c1 (repeat unit)	83.50 °C
*c1cc(C(=O)NCCCCCC)cc(N2C(=O)c3ccc(-c4ccc5c(c4)C(=O)N(*)C5=O)cc3C2=O)c1 (repeat unit)	256.90 °C
*c1cc(C(=O)NCCCCCCCC)cc(N2C(=O)c3ccc(-c4ccc5c(c4)C(=O)N(*)C5=O)cc3C2=O)c1 (repeat unit)	245.50 °C
*c1cc(C(=O)NCCCCCCCCCC)cc(N2C(=O)c3ccc(-c4ccc5c(c4)C(=O)N(*)C5=O)cc3C2=O)c1 (repeat unit)	245.10 °C
*c1cc(C(=O)NCCCCCCCCCCCCCC)cc(N2C(=O)c3ccc(-c4ccc5c(c4)C(=O)N(*)C5=O)cc3C2=O)c1 (repeat unit)	247.60 °C
*c1cc(C(=O)O)cc(N2C(=O)CC(C3CC4C(=O)N(*)C(=O)C4c4ccccc43)C2=O)c1 (repeat unit)	360.00 °C
*c1cc(C(=O)OCCCCC)cc(N2C(=O)CC(C3Cc4ccccc4C4C(=O)N(*)C(=O)C43)C2=O)c1 (repeat unit)	219.00 °C
*c1cc(C(=O)Oc2ccc(-c3ccc(O[Si](C)(C)C(C)(C)C)cc3)cc2)cc(N2C(=O)c3ccc(-c4ccc5c(c4)C(=O)N(*)C5=O)cc3C2=O)c1 (repeat unit)	230.00 °C
*c1cc(C(=O)Oc2cccc3cccnc23)c(*)s1 (repeat unit)	154.00 °C
*c1cc(C(C(=O)OC)C(=O)OC)c(*)s1 (repeat unit)	-20.10 °C
*c1cc(C(C)(C)c2ccc(O)cc2)cc(*)c1O (repeat unit)	135.00 °C
*c1cc(C)c(-c2c(C)cc(N3C(=O)c4ccc(-c5ccc6c(c5)C(=O)N(*)C6=O)cc4C3=O)cc2C)c(C)c1 (repeat unit)	280.00 °C

Compound	glass transition temperature
*c1cc(C)c(Cc2cc(C)c(N3C(=O)c4ccc(Oc5ccc(Oc6ccc7c(c6)C(=O)N(*)C7=O)cc5)cc4C3=O)cc2C)cc1C (repeat unit)	278.00 °C
*c1ccc(N2C(=O)c3ccc(C(=O)c4ccc5c(c4)C(=O)N(c4ccc(-c6nc7cc(Oc8ccc9nc(-c%10ccccc%10)c(*)nc9c8)ccc7nc6-c6ccccc6)cc4)C5=O)cc3C2=O)cc1 (repeat unit)	254.00 °C
*c1ccc(Oc2ccc(C(C)(C)c3ccccc3)cc2)c(-n2c(=O)c3cc4c(=O)n(*)c(=O)c4cc3c2=O)c1 (repeat unit)	340.00 °C
*c1ccc(Oc2ccc(C3(c4ccc(Oc5ccc(N6C(=O)c7ccc(Oc8ccccc8Oc8ccc9c(c8)C(=O)N(*)C9=O)cc7C6=O)cc5C(F)(F)F)cc4)c4ccccc4-c4ccccc43)cc2)c(C(F)(F)F)c1 (repeat unit)	241.00 °C
*c1ccc(Oc2ccc(N3C(=O)c4ccc(Oc5cccc(Oc6ccc7c(c6)C(=O)N(*)C7=O)c5)cc4C3=O)cc2)cc1 (repeat unit)	209.00 °C
*c1ccc(Oc2ccc(N3C(=O)c4ccc(Oc5ccccc5Oc5ccc6c(c5)C(=O)N(*)C6=O)cc4C3=O)cc2)cc1 (repeat unit)	212.00 °C
*c1ccc(Oc2ccc(S(=O)(=O)c3ccc(C)cc3)cc2)c(-n2c(=O)c3cc4c(=O)n(*)c(=O)c4cc3c2=O)c1 (repeat unit)	320.00 °C
*c1ccc(Oc2cccc(Oc3ccc(N4C(=O)c5ccc(Oc6cccc(Oc7ccc8c(c7)C(=O)N(*)C8=O)c6)cc5C4=O)cc3)c2)cc1 (repeat unit)	188.00 °C
*c1ccc(Sc2cc3c(cc2Sc2ccc(N4C(=O)C5C6C=CC(C7C(=O)N(*)C(=O)C67)C5C4=O)cc2)C(=O)N(CCN(C)C)C3=O)cc1 (repeat unit)	310.00 °C
*c1ccc(Sc2cc3c(cc2Sc2ccc(N4C(=O)C5C6C=CC(C7C(=O)N(*)C(=O)C67)C5C4=O)cc2)C(=O)N(CCc2ccccc2)C3=O)cc1 (repeat unit)	258.00 °C
*c1ccc(Sc2cc3c(cc2Sc2ccc(N4C(=O)c5ccc(Oc6ccc7c(c6)C(=O)N(*)C7=O)cc5C4=O)cc2)C(=O)N(CCCCCCCCCCCCCCCC)C3=O)cc1 (repeat unit)	156.00 °C
*c1ccc(Sc2cc3c(cc2Sc2ccc(N4C(=O)c5ccc(Oc6ccc7c(c6)C(=O)N(*)C7=O)cc5C4=O)cc2)C(=O)N(CCc2ccccc2)C3=O)cc1 (repeat unit)	218.00 °C
*c1ccc(Sc2ccc(Sc3ccc(N4C(=O)c5ccc(Sc6ccc(Sc7ccc(Sc8ccc9c(c8)C(=O)N(*)C9=O)cc7)cc6)cc5C4=O)cc3)s2)cc1 (repeat unit)	185.50 °C
*c1cccc(N2C(=O)c3ccc(Oc4cccc(Oc5ccc6c(c5)C(=O)N(*)C6=O)c4)cc3C2=O)c1 (repeat unit)	224.00 °C
*c1cccc(N2C(=O)c3ccc(Oc4cccc5c(Oc6ccc7c(c6)C(=O)N(*)C7=O)cccc45)cc3C2=O)c1 (repeat unit)	260.00 °C
*c1cccc(N2C(=O)c3cccc(Oc4cccc(Oc5cccc6c5C(=O)N(*)C6=O)c4)c3C2=O)c1 (repeat unit)	241.00 °C
*c1cccc(P(=O)(c2ccccc2)c2cccc(N3C(=O)c4ccc(NC(=O)OCCOc5c(Br)cc(C(C)(C)c6cc(Br)c(OCCOC(=O)Nc7ccc8c(c7)C(=O)N(*)C8=O)c(Br)c6)cc5Br)cc4C3=O)c2)c1 (repeat unit)	201.00 °C
*c1cccc(P(C)(=O)c2cccc(N3C(=O)c4ccc(NC(=O)OCCOc5c(Br)cc(C(C)(C)c6cc(Br)c(OCCOC(=O)Nc7ccc8c(c7)C(=O)N(*)C8=O)c(Br)c6)cc5Br)cc4C3=O)c2)c1 (repeat unit)	191.00 °C
